Results reported in patent US7592160B2, “Processes for producing isomaltose and isomaltitol and use thereof” (Kabushiki Kaisha Hayashibara Seibutsu Kagaku Kenkyujo, priority 2001, dated 2009).

Experiments:
Parameters in all cases: key: −: it showed no change; +: it showed a slight reduction of the color spot of the substrate and the formation of other reaction product; ++: it showed a high reduction of the color spot of the substrate and the formation of other reaction product; +++: it showed a substantial disappearance of the substrate spot and the formation of other reaction product
[1] = tested on: α-isomaltosylglucosaccharide-forming enzyme; test: Action on saccharides as substrates (TLC), enzyme of C9 strain; format: biochemical, Bacillus globisporus C9 strain; details: two units/g substrate, substrate 2% (w/v), 30° C., pH 6.0, 24 hours
Excerpt: (§1) To examine the saccharides in the supernatant, they were separated by developing twice on silica gel thin-layer chromatography (abbreviated as “TLC” hereinafter) using, as a developer, a mixture solution of n-butanol, pyridine, and water (=6:4:1 by volume), and, as a thin-layer plate, “[…]™ 60”, an aluminum plate (20×20 cm) for TLC commercialized by Merck & Co., Inc., Rahway, USA. The coloration of the separated total sugars by the sulfuric acid-methanol method and that of the reducing saccharides by the diphenylamine-aniline method detected a non-reducing saccharide positive at an Rf value of about 0.31 on the former detection method but negative on the latter detection method.
(§2) It was tested whether any saccharides can be used as substrates for α-isomaltosylglucosaccharide-forming enzyme. For the purpose, a solution of maltose, maltotriose, maltotetraose, maltopentaose, maltohexaose, maltoheptaose, isomaltose, isomaltotriose, panose, isopanose, α,α-trehalose, kojibiose, nigerose, neotrehalose, cellobiose, gentibiose, maltitol, maltotriitol, lactose, sucrose, erlose, selaginose, maltosyl glucoside, or isomaltosyl glucoside was prepared.
(§3) To each of the above solutions was added two units/g substrate of a purified specimen of α-isomaltosylglucosaccharide-forming enzyme from either Bacillus globisporus C9 strain obtained by the method in Experiment 4-2, Bacillus globisporus C11 strain obtained by the method in Experiment 7-2, Bacillus globisporus N75 strain obtained by the method in Experiment 11-2, or Arthrobacter globiformis A19 strain obtained by the method in Experiment 15-2, and the resulting each solution was adjusted to give a substrate concentration of 2% (w/v) and incubated at 30° C. and pH 6.0 for 24 hours, except for using pH 8.4 for the enzyme from Arthrobacter globiformis A19 strain. The enzyme solutions before and after the enzymatic reactions were respectively analyzed on TLC disclosed in Experiment 1 to confirm whether the enzymes acted on these substrates.

[2] = tested on: α-isomaltosylglucosaccharide-forming enzyme; test: Action on saccharides as substrates (TLC), enzyme of N75 strain; format: biochemical, Bacillus globisporus N75 strain; details: two units/g substrate, substrate 2% (w/v), 30° C., pH 6.0, 24 hours
Excerpt: as §1, §2, §3

[3] = tested on: α-isomaltosylglucosaccharide-forming enzyme; test: Action on saccharides as substrates (TLC), enzyme of C11 strain; format: biochemical, Bacillus globisporus C11 strain; details: two units/g substrate, substrate 2% (w/v), 30° C., pH 6.0, 24 hours
Excerpt: as §1, §2, §3

[4] = tested on: α-isomaltosylglucosaccharide-forming enzyme; test: Action on saccharides as substrates (TLC), enzyme of A19 strain; format: biochemical, Arthrobacter globiformis A19 strain; details: two units/g substrate, substrate 2% (w/v), 30° C., pH 8.4, 24 hours
Excerpt: as §1, §2, §3

Molecule | Enzymatic action, Enzyme of C9 strain [1] | Enzymatic action, Enzyme of N75 strain [2] | Enzymatic action, Enzyme of C11 strain [3] | Enzymatic action, Enzyme of A19 strain [4]
OC[C@H]1O[C@H](O[C@H]2O[C@H](CO)[C@@H](O[C@H]3O[C@H](CO)[C@@H](O)[C@H](O)[C@H]3O)[C@H](O)[C@H]2O)[C@H](O)[C@@H](O)[C@@H]1O [Maltosyl glucoside, maltosyl glucoside] | ++ | ++ | ++ | ++
OC[C@H]1O[C@H](O[C@H]2C(O)O[C@H](CO)[C@@H](O)[C@@H]2O)[C@H](O)[C@@H](O)[C@@H]1O (stereo partly shown) [Kojibiose, kojibiose] | + | + | + | +
OC[C@H]1O[C@H](OC[C@H]2O[C@H](O[C@H]3[C@H](O)[C@@H](O)C(O)O[C@@H]3CO)[C@H](O)[C@@H](O)[C@@H]2O)[C@H](O)[C@@H](O)[C@@H]1O (stereo partly shown) [Panose, panose] | − | − | − | −
maltopentaose | +++ | +++ | +++ | +++
OC[C@@H](O)[C@@H](O[C@H]1O[C@H](CO)[C@@H](O[C@H]2O[C@H](CO)[C@@H](O)[C@H](O)[C@H]2O)[C@H](O)[C@H]1O)[C@H](O)[C@@H](O)CO [Maltotriitol, maltotriitol] | + | + | + | +
OC[C@H]1O[C@H](O[C@H]2[C@H](O)[C@@H](O)[C@H](O)O[C@@H]2CO)[C@H](O)[C@@H](O)[C@@H]1O [Maltose, maltose] | + | + | + | +
OC[C@H]1O[C@@](CO)(O[C@H]2O[C@H](CO)[C@@H](O[C@H]3O[C@H](CO)[C@@H](O)[C@H](O)[C@H]3O)[C@H](O)[C@H]2O)[C@@H](O)[C@@H]1O [Erlose, erlose] | + | + | + | +
maltoheptaose | +++ | +++ | +++ | +++
maltotriose | ++ | ++ | ++ | ++
OC[C@H]1O[C@H](O[C@H]2[C@H](O)[C@@H](O)[C@@H](O[C@H]3[C@H](O)[C@@H](O)[C@@H](O[C@H]4[C@H](O)[C@@H](O)C(O)O[C@@H]4CO)O[C@@H]3CO)O[C@@H]2CO)[C@H](O)[C@@H](O)[C@@H]1O (stereo partly shown) [Maltotetraose, maltotetraose] | +++ | +++ | +++ | +++
OC[C@H]1O[C@H](O[C@H]2[C@H](O)[C@@H](O)[C@@H](OC[C@H]3OC(O)[C@H](O)[C@@H](O)[C@@H]3O)O[C@@H]2CO)[C@H](O)[C@@H](O)[C@@H]1O (stereo partly shown) [Isopanose, isopanose] | ++ | ++ | ++ | ++
OC[C@H]1O[C@H](O[C@H]2O[C@H](CO)[C@@H](O)[C@H](O)[C@H]2O[C@H]2O[C@H](CO)[C@@H](O)[C@H](O)[C@H]2O)[C@H](O)[C@@H](O)[C@@H]1O [Selaginose, selaginose] | − | − | − | −
maltohexaose | +++ | +++ | +++ | +++
isomaltosyl glucoside | − | − | − | −
OC[C@H]1O[C@@H](O[C@H]2O[C@H](CO)[C@@H](O)[C@H](O)[C@H]2O)[C@H](O)[C@@H](O)[C@@H]1O [Neotrehalose, neotrehalose] | + | + | + | +
OC[C@H]1O[C@H](O[C@H]2[C@H](O)[C@@H](CO)OC(O)[C@@H]2O)[C@H](O)[C@@H](O)[C@@H]1O (stereo partly shown) [Nigerose, nigerose] | + | + | + | +
